Test results reported in US8771973B2, “Methods for treating bleeding disorders using sulfated polysaccharides” (Baxter Healthcare S.A., priority 2004, dated 2014).
“Also recorded” adds a separate entry of the source.

Experiments:
[1] = target: T1, TFPI (Homo sapiens, UniProt P10646); assay: dPT assay, inhibition of TFPI activity in Hem-B plasma, TFPI preincubated with NASP; assay type: biochemical; conditions: for clotting time, dPT: Hem-B + TFPI, plasma alone 46, + TFPI 101 seconds
T1 construct: purchased American Diagnostica (Stamford, Conn.)
T1 sequence (P10646 29-304): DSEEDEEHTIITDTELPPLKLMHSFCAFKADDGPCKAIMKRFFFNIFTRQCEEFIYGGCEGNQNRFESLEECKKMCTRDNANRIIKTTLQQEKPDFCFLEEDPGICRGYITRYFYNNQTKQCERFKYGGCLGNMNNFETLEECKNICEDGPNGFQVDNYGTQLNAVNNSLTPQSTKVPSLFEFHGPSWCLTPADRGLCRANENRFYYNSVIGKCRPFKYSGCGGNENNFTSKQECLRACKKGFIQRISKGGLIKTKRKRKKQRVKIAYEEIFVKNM
Experimental: (§1) The dPT assay used was a modified standard clinical PT assay (Nordfang et al. (1991) Thromb Haemost 66:464-467; Welsch et al. (1991) Thrombosis Research 64: 213-222). SIMPLASTIN EXCEL thromboplastin reagent (Organon Teknika) was reconstituted with the manufacturer's diluent and further diluted 1:100 in 0.9% saline. The thromboplastin reagent, 25 mM CaCl2, and plasma samples were pre-warmed to 37° C. before initiating the assay. 100 μl of thawed plasma was aliquoted into microcentrifuge tubes. […] 100 μl of the diluted thromboplastin reagent and 100 μl of 25 mM CaCl2 were added to fibrin cups (Fisher) prewarmed to 37° C. 100 μl of plasma (normal or hemophilic) containing the test agent or saline control was added to the fibrin cups containing the thromboplastin reagent and CaCl2 to initiate clotting. The time for plasma clotting was measured with a BBL FIBROSYSTEM fibrometer.
(§2) Inhibition of TFPI activity by NASPs was assessed in dPT clotting assays with normal or hemophilic plasma and added recombinant TFPI. Diluted recombinant TFPI was preincubated with NASPs for 5 minutes at room temperature before plasma was added. After addition of plasma, the mixture was incubated for an additional 25 minutes followed by dPT initiation.
The acceleration of plasma clotting by the NASPs in the presence of TFPI was also tested in Hem-B and normal plasma.

[2] = system: Hem-A plasma; assay: dPT assay, TFPI titrated into FVIII deficient (Hem-A) plasma; assay type: biochemical, human
Experimental: as §1
A 100 μg/mL TFPI stock solution (American Diagnostica, Stamford, Conn.) was sequentially diluted in saline to generate TFPI solutions at the following concentrations: 20, 15, 10, 6, and 2 μg/mL. 5 μl of these TFPI dilutions were mixed with 95 μl of FVIII deficient plasma and incubated at room temperature for 30 minutes. dPT assays were performed as follows: SIMPLASTIN thromboplastin was diluted 1:100 in saline and prewarmed to 37° C. 25 mM CaCl2 and 100 μl of test plasma containing TFPI was prewarmed to 37° C. 100 μl SIMPLASTIN thromboplastin and 100 μl of CaCl2 were mixed and clotting time was measured using a BBL fibrometer.

[3] = target: T1, TFPI; assay: dPT assay, inhibition of TFPI activity in Hem-A plasma without preincubation; assay type: biochemical; conditions: for clotting time, dPT: Hem-A + TFPI, no preincubation, HemA + TFPI 183, alone 45 seconds
Experimental: as §1
Experiments were repeated without a preincubation of the sulfated polysaccharides with TFPI prior to exposure to plasma. To extend the stringency of the test for NASP inhibition of TFPI activity, TFPI was added to the plasma before the NASP was added.

[4] = target: T1, TFPI; assay: dPT assay, inhibition of TFPI activity in Hem-A plasma, TFPI preincubated with NASP; assay type: biochemical; conditions: for clotting time, dPT: Hem-A + TFPI, plasma alone 44, + TFPI 151 seconds
Experimental: as §1, §2

[5] = system: Hem-A plasma containing 1.25% FACT plasma; assay: aPTT assay, NASPs in 1.25% FACT diluted in Hem-A plasma; assay type: biochemical, human
Experimental: Activated Partial Thromboplastin Time (aPTT) Assay The aPTT assay was performed as described previously with modifications (PDR Staff Physicians' Desk Reference. 2004, Anderson Lo, Barrowcliffe, T. W., Holmer, E., Johnson, E. A., Sims, G. E. C. Thromb. Res. 1976; 9:575-580). 25 mM CaCl2 and fibrin cups (Fisher) were pre-warmed to 37° C. 0.1 ml of thawed human plasma (normal or hemophilic) was added to warmed test tubes. 5 μl of saline (e.g. Sigma) or 5 μl of test agent (e.g., NASP) dissolved in saline was incubated with 95 μl of plasma for 30 minutes at room temperature. APTT reagent (e.g. Organon Teknika) was reconstituted in 3 ml distilled water and 0.1 ml of the reconstituted solution containing the APTT reagent was added to each test tube. 0.2 ml of plasma containing the test agent or saline control and aPTT reagent were transferred from test tubes to pre-warmed fibrin cups and incubated for 2-3 minutes. 0.1 ml of pre-warmed 25 mM CaCl2 was added to initiate clotting, and the time for plasma clotting was measured with a BBL FIBROSYSTEM fibrometer.
The effect of NASPs on the clotting time of plasma was determined as follows: 5 μl of a NASP was added to 95 μl of 1.25% FACT diluted in human Hem-A plasma and incubated at room temperature for 30 minutes. aPTT assays were performed to determine plasma clotting time as described in Example 1.

[6] = system: Hem-A plasma; assay: dPT assay, Hem-A plasma in absence of exogenous TFPI; assay type: biochemical, human; conditions: dPT
Experimental: as §1
The ability of NASPs to accelerate clotting of factor-deficient plasma in the absence of TFPI supplementation was also tested in dPT assays. A procoagulant response, if observed, may be related to neutralization of endogenous TFPI activity, which is present in human plasma at approximately 100 ng/ml (Nordfang et al., supra), largely associated with lipoprotein or platelets (Broze et al. (1992) Semin. Hematol. 29:159-169; Broze et al. (2003) J. Thromb. Haemost. 1:1671-1675).
The ability of NASPs to accelerate clotting of Hem-A plasma in the absence of exogenous TFPI was tested. Fucoidan or PPS were titrated into Hem A plasma and dPT assays were performed. Additionally, the dose-response to factor VIIa was analyzed as a positive control for amplifying extrinsic pathway activation.

[7] = system: Hem-A plasma; assay: dPT assay, anti-coagulant activity of NASPs in Hem-A plasma; assay type: biochemical, human; conditions: for clotting time, dPT: Hem-A plasma without NASP 41.5 seconds
Experimental: as §1
Test compounds were diluted to 100 μM, 10 μM, 2 μM and 200 nM. For each test compound, 12.5 μl of a diluted solution containing the test compound was added to 237.5 μl of Hem-A plasma and incubated at room temperature. 100 μl of plasma containing the test compound was removed for dPT assays of plasma clotting time as described in Example 2.

TFPI: human recombinant TFPI from American Diagnostica
Clotting time of Hem-B + TFPI ([1]; no NASP, Hem-B alone 46 seconds): Clotting time of Hem-B + TFPI: 101 seconds.
Clotting time ([2]; TFPI 0.1 μg/mL in plasma): 60 s
Clotting time ([2]; TFPI 0.3 μg/mL in plasma): 94 s
Clotting time ([2]; TFPI 0.5 μg/mL in plasma): 98 s
Clotting time ([2]; TFPI 0.75 μg/mL in plasma): 173 s
Clotting time ([2]; TFPI 1 μg/mL in plasma): >200 s
Clotting time HemA + TFPI ([3]; no NASP, Hem-A alone 45 seconds): HemA + TFPI: 183 seconds
clotting time of plasma with TFPI ([4]; TFPI approximately 0.5 μg/ml, from approximately 40 seconds, depending on experiment and source of plasma): 100 to 200 s
Clotting time of Hem-A plasma + TFPI ([4]; no NASP, TFPI approximately 0.5 μg/ml, plasma alone 44 seconds): Clotting time of Hem-A plasma + TFPI is 151 seconds.

N-Acetyl-Heparin [NAH]
clotting time, dPT ([1]; 0.16 nM): 102 s
clotting time, dPT ([1]; 0.8 nM): 101 s
clotting time, dPT ([1]; 4 nM): 106 s
clotting time, dPT ([1]; 20 nM): 106 s
clotting time, dPT ([1]; 100 nM): 94 s
clotting time, dPT ([1]; 500 nM): 68 s
clotting time, aPTT ([5]; 0.8 nM): 70 s
clotting time, aPTT ([5]; 4 nM): 69 s
clotting time, aPTT ([5]; 20 nM): 67 s
clotting time, aPTT ([5]; 100 nM): 74 s
clotting time, aPTT ([5]; 500 nM): 85 s
concentration producing approximately 50% prolongation in clotting time, fold higher than for heparin ([5]; APTT, Hem-A plasma): > 500 fold
clotting time, dPT ([3]; 0.8 nM): 165 s
clotting time, dPT ([3]; 4 nM): 180 s
clotting time, dPT ([3]; 20 nM): 184 s
clotting time, dPT ([3]; 100 nM): 125 s
clotting time, dPT ([3]; 500 nM): 89 s
clotting time, dPT ([4]; 0.16 nM, preincubation): 144 s
clotting time, dPT ([4]; 0.8 nM, preincubation): 158 s
clotting time, dPT ([4]; 4 nM, preincubation): 160 s
clotting time, dPT ([4]; 20 nM, preincubation): 141 s
clotting time, dPT ([4]; 100 nM, preincubation): 99 s
clotting time, dPT ([4]; 500 nM, preincubation): 84 s
TFPI-neutralizing activity ([4]; dPT, FIGS. 4-6 / data not shown): only weak TFPI-neutralizing activity
concentration that accelerates (shortens) clotting of Hem-A plasma containing TFPI ([4]; dPT, preincubation): approximately 100 nM
acceleration of hemophilic plasma clotting in the absence of TFPI addition [6]: had no activity; also recorded: did not accelerate hemophilic plasma clotting times
clotting time, dPT ([7]; 10 nM): 38 s
clotting time, dPT ([7]; 100 nM): 37 s
clotting time, dPT ([7]; 500 nM): 36 s
clotting time, dPT ([7]; 5000 nM): 38 s
prolongation of clotting time ([7]; dPT, concentrations>5000 nM): little or no prolongation of clotting time
